Literature values in patent US20230330042A1, “FORMULATION FOR ORAL ADMINISTRATION” (NIPPON ZOKI PHARMACEUTICAL CO., LTD., priority 2020, published 2023).
Where two headings read alike, the source gives them in different places.

How the values were obtained:
Noradrenaline reuptake = Noradrenaline reuptake (Homo sapiens, UniProt P23975)
κ-opioid receptor = κ-opioid receptor (Homo sapiens, UniProt P41145); conditions: read-out: Ki κ
[1] = in vivo
δ-opioid receptor = δ-opioid receptor (Homo sapiens, UniProt P41143); conditions: read-out: Ki δ; Mean value (n = 2-3)
μ-opioid receptor = μ-opioid receptor (Homo sapiens, UniProt P35372); conditions: read-out: Ki μ; Mean value (n = 2-3)
Serotonin reuptake = Serotonin reuptake (Homo sapiens, UniProt P31645); conditions: read-out: Ki Serotonin
[2] = Mean value (n = 2-3); NA: no activity at 10 μmol/L; read-out: Ki Noradrenaline
[3] = read-out: Ki Noradrenaline; Mean value (n = 2-3); NA: no activity at 10 μmol/L

Chain of δ-opioid receptor (P41143 whole entry): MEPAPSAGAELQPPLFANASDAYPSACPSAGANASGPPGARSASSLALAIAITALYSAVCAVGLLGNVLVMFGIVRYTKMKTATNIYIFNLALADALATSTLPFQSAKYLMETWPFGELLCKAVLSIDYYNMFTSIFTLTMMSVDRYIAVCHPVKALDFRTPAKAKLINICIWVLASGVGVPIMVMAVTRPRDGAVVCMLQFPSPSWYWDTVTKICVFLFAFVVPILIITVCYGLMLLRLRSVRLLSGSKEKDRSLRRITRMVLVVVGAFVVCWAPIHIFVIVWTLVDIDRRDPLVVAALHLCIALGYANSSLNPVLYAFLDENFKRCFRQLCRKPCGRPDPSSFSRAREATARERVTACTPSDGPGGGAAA
Chain of Noradrenaline reuptake (P23975 whole entry): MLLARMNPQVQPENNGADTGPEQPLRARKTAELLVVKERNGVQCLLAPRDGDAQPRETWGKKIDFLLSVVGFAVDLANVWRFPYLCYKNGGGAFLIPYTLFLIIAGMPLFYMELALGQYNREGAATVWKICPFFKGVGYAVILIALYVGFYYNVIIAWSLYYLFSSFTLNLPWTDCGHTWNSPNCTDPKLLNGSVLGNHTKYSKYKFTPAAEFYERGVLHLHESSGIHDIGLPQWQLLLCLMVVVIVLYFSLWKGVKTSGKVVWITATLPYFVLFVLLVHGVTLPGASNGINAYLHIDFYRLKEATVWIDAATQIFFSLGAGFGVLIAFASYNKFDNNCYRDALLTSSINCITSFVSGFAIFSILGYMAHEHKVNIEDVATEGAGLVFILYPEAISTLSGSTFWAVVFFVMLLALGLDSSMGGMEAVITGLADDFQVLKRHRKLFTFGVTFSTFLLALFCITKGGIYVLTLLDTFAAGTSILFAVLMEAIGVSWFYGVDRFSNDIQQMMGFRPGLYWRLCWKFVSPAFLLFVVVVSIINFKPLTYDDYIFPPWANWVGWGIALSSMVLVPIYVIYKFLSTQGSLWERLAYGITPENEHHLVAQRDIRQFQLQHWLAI
Chain of κ-opioid receptor (P41145 whole entry): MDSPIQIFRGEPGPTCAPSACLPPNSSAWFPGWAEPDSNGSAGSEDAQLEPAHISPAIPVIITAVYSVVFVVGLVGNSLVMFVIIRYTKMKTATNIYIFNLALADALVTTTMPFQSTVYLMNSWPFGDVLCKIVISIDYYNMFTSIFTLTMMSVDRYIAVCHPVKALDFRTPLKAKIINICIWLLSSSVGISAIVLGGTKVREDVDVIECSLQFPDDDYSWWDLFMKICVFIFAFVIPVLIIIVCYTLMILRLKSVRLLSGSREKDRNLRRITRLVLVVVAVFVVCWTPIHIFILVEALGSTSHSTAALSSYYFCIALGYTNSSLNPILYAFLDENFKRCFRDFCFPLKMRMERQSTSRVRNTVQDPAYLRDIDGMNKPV
Chain of Serotonin reuptake (P31645 whole entry): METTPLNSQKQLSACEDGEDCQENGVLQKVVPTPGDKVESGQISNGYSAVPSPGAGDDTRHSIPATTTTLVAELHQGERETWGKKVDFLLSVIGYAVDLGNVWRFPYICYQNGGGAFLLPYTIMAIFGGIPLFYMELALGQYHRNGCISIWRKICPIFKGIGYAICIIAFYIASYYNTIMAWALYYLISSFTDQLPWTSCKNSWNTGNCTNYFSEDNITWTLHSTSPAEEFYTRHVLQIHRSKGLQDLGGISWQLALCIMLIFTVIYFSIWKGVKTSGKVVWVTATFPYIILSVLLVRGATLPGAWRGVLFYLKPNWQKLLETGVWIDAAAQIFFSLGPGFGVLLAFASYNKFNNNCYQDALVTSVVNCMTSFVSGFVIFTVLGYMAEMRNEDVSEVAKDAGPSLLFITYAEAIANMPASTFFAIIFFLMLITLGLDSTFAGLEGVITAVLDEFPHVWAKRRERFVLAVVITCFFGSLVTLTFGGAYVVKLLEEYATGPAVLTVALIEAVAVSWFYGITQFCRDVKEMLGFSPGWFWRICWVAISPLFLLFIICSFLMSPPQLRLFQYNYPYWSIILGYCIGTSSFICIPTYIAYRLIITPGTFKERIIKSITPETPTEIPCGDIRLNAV
Chain of μ-opioid receptor (P35372 whole entry, species assumed): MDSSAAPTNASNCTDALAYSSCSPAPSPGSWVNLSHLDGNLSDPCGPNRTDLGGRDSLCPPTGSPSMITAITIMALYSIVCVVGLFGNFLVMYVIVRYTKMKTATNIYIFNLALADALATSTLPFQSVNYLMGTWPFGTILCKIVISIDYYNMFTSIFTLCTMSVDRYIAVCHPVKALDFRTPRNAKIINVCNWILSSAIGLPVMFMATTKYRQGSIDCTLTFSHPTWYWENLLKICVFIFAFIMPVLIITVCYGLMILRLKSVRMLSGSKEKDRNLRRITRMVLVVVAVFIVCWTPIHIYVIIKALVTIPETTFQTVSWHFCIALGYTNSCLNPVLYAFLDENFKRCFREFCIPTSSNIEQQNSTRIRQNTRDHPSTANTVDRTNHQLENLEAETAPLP

For `CN(C)CC1CCCCC1(O)c1cccc(O)c1` (racemic) [(±)-M1, O-desmethyltramadol], the Ki (Noradrenaline reuptake; [2]) is given as 1.52 µM, the Ki (κ-opioid receptor; Mean value (n = 2-3)) is given as 0.242 µM and the half-life ([1]; po) is given as 6 to 7 h.
In the case of `COc1cccc([C@@]2(O)CCCC[C@@H]2CN(C)C)c1` (racemic) [(±)-Tramadol, (1RS,2RS)-2-[(dimethylamino)methyl]-1-(3-methoxyphenyl)cyclohexanol], the Ki (Noradrenaline reuptake; [3]) is listed as 0.785 µM, the Ki (κ-opioid receptor) is listed as 42.7 µM and the Ki (δ-opioid receptor) is listed as 57.7 µM. For the same compound, the “unchanged tramadol and metabolites excreted through the kidney” value [1] was “about 90%”, the half-life ([1]; po) was 5 to 6 h and the “time after administration at which the maximum drug concentration is reached” value ([1]; po) was 1.6 to 1.9 h. The “time at which the maximum concentration in the brain is reached” value ([1]; po) was 10 min.
In the case of `CN(C)CCCN1c2ccccc2CCc2ccccc21` [Imipramine], the Ki (δ-opioid receptor) is listed as 12.7 µM and the Ki (μ-opioid receptor) is listed as 3.73 µM.
In the case of `COc1cccc(C2(O)CCCCC2CN(C)C)c1` (single isomer, unassigned; (-)) [(−)-Tramadol, (−)-tramadol], the Ki (Noradrenaline reuptake; [2]) is listed as 0.432 µM, the Ki (κ-opioid receptor) is listed as 53.5 µM and the Ki (δ-opioid receptor) is listed as 213 µM.
In the case of `COc1ccc2c3c1O[C@H]1[C@@H](O)C=C[C@H]4[C@@H](C2)N(C)CC[C@@]341` [Codeine], the Ki (Noradrenaline reuptake; [3]) is listed as over 10 µM and the Ki (Serotonin reuptake) is listed as over 10 µM.
In the case of `COc1cccc(C2(O)CCCCC2CN(C)C)c1` (single isomer, unassigned; (+)) [(+)-Tramadol, (+)-tramadol], the Ki (Noradrenaline reuptake; [2]) is listed as 2.51 µM, the Ki (κ-opioid receptor) is listed as 54 µM and the Ki (δ-opioid receptor) is listed as 6.24 µM.
For `CN(C)CC1CCCCC1(O)c1cccc(O)c1` (single isomer, unassigned; (-)) [(−)-M1], the Ki (Noradrenaline reuptake; [2]) is listed as 0.857 µM, the Ki (κ-opioid receptor; Mean value (n = 2-3)) is listed as 32.9 µM and the Ki (δ-opioid receptor) is listed as 30.5 µM.
For `CN(C)CC1CCCCC1(O)c1cccc(O)c1` (single isomer, unassigned; (+)) [(+)-M1], the Ki (Noradrenaline reuptake; [2]) is given as 14.4 µM, the Ki (κ-opioid receptor; Mean value (n = 2-3)) is given as 0.706 µM and the Ki (δ-opioid receptor) is given as 0.594 µM.
